Measurements as given in PMC12040169 (PLOS Biology, 2025).

experiment: in vitro; conditions: human, hela cells, % viability

**Q.** Which viability at 28.5 h, 10 µM does the source give for `O=C(O)c1sc2ncccc2c1NS(=O)(=O)c1cc(Cl)sc1Cl` [CBK050650] here?
**A.** 78.2%

**Q.** For `CCCc1ccc(S(=O)(=O)Nc2c(C(=O)OC)sc3ncccc23)cc1` [CBK050653], which viability at 28.5 h, 10 µM is on record?
**A.** 87.2%

**Q.** Which viability at 28.5 h, 10 µM does the source give for `CC(=O)Nc1cccc(-c2nccnc2NS(C)(=O)=O)c1` [CBK050740] here?
**A.** 108%

**Q.** For `O=S(=O)(Nc1nccnc1-c1cccs1)C1CC1` [CBK050764], which viability at 28.5 h, 10 µM is on record?
**A.** 93.9%

**Q.** For `CC(C)(C)S(=O)(=O)Nc1nccnc1-c1cccs1` [CBK050765], which viability at 28.5 h, 10 µM is on record?
**A.** 107%

**Q.** With `O=S(=O)(Nc1nccnc1-c1cccs1)c1ccccc1Cl` [CBK050775] as the compound, how does the viability at 28.5 h, 10 µM read?
**A.** 94.9%

**Q.** Which viability at 28.5 h, 10 µM does the source give for `CN(C)c1ccc(-c2nccnc2NS(=O)(=O)Cc2cccc(Cl)c2)cc1` [CBK050787] here?
**A.** 102%

**Q.** With `CN(C)c1ccc(-c2nccnc2NS(=O)(=O)c2ccccc2C(F)(F)F)cc1` [CBK050801] as the compound, how does the viability at 28.5 h, 10 µM read?
**A.** 92.8%

**Q.** Which viability at 28.5 h, 10 µM does the source give for `COc1ccc(S(=O)(=O)Nc2nccnc2-c2ccc3[nH]ccc3c2)cc1` [CBK050805] here?
**A.** 91.6%

**Q.** Which viability at 28.5 h, 10 µM does the source give for `c1cnc(-c2nnn[nH]2)c(-c2ccc(COc3ccc4c(c3)OCO4)cc2)n1` [CBK050812] here?
**A.** 107%

**Q.** With `c1ccc(-c2ccno2)c(OCc2ccc(-c3nccnc3-c3nnn[nH]3)cc2)c1` [CBK050817] as the compound, how does the viability at 28.5 h, 10 µM read?
**A.** 93.6%

**Q.** For `c1ccc2cc(OCc3ccc(-c4nccnc4-c4nnn[nH]4)cc3)ccc2c1` [CBK050818], which viability at 28.5 h, 10 µM is on record?
**A.** 93.9%

**Q.** Which viability at 28.5 h, 10 µM does the source give for `c1ccc2c(c1)ccn2Cc1ccc(-c2nccnc2-c2nnn[nH]2)cc1` [CBK050821] here?
**A.** 107%

**Q.** With `CN(C)C(=O)c1nccnc1-c1ccc(COc2ccc3c(c2)OCO3)cc1` [CBK050829] as the compound, how does the viability at 28.5 h, 10 µM read?
**A.** 91.1%

**Q.** For `O=C(Nc1ccc2c(c1)OCO2)c1nccnc1-c1ccc(COc2ccccc2)cc1` [CBK050834], which viability at 28.5 h, 10 µM is on record?
**A.** 109%

**Q.** Which viability at 28.5 h, 10 µM does the source give for `O=C(Nc1ccccn1)c1nccnc1-c1ccc(COc2ccccc2)cc1` [CBK050835] here?
**A.** 86.1%

**Q.** For `O=C(NCc1ccco1)c1nccnc1-c1ccc(COc2ccc3c(c2)CCCC3)cc1` [CBK050851], which viability at 28.5 h, 10 µM is on record?
**A.** 89.8%

**Q.** Which viability at 28.5 h, 10 µM does the source give for `CC(C)(C)S(=O)(=O)Nc1nccnc1-c1ccc(OCc2ccccc2)cc1` [CBK050886] here?
**A.** 89.4%

**Q.** For `O=S(=O)(Nc1nccnc1-c1ccc2c(c1)OCO2)c1ccc(Cl)cc1` [CBK050952], which viability at 28.5 h, 10 µM is on record?
**A.** 92.4%

**Q.** For `N#CCn1c(-c2nonc2N)nc2ccccc21` [CBK050974], which viability at 28.5 h, 10 µM is on record?
**A.** 92.3%

**Q.** For `CC(C)c1ccc(S(=O)(=O)N2CC3CC2CO3)cc1` (stereo not drawn) [CBK050999], which viability at 28.5 h, 10 µM is on record?
**A.** 97.3%

**Q.** Which viability at 28.5 h, 10 µM does the source give for `COc1cc([C@@H]2c3cc4c(cc3[C@H](O)[C@H]3COC(=O)[C@@H]23)OCO4)cc(OC)c1OC` [CBK051004] here?
**A.** 36.3%

**Q.** With `O=S(=O)(Nc1cccnc1N1CCOCC1)c1ccc(F)cc1` [CBK051009] as the compound, how does the viability at 28.5 h, 10 µM read?
**A.** 96.4%

**Q.** Which viability at 28.5 h, 10 µM does the source give for `N#Cc1c[nH]nc1NS(=O)(=O)c1ccc(F)cc1` [CBK051018] here?
**A.** 106%

**Q.** For `Cc1cc(NS(=O)(=O)c2ccc(F)cc2)n(C)n1` [CBK051021], which viability at 28.5 h, 10 µM is on record?
**A.** 108%

**Q.** Which viability at 28.5 h, 10 µM does the source give for `Cc1ccnc(NS(=O)(=O)c2ccc(NS(=O)(=O)c3ccc(F)cc3)cc2)n1` [CBK051024] here?
**A.** 102%

**Q.** For `Cc1c(S(=O)(=O)Nc2ccc(C(=O)c3ccccc3)cc2)cnn1-c1ccccc1` [CBK051034], which viability at 28.5 h, 10 µM is on record?
**A.** 96.5%

**Q.** With `O=S(=O)(c1ccccc1)c1cncc(N2CCNCC2)n1` [CBK051078C] as the compound, how does the viability at 28.5 h, 10 µM read?
**A.** 89.3%

**Q.** For `O=C1CN(S(=O)(=O)c2ccc(F)cc2Cl)CCN1` [CBK051081], which viability at 28.5 h, 10 µM is on record?
**A.** 109%

**Q.** Which viability at 28.5 h, 10 µM does the source give for `O=C(NCC1COc2ccccc2O1)NC(=O)C1CCNCC1` (stereo not drawn) [CBK051096] here?
**A.** 91.6%

**Q.** For `CN1CCC(C(=O)NC(=O)NCCOc2cccc3ccccc23)CC1` [CBK051100], which viability at 28.5 h, 10 µM is on record?
**A.** 90.1%

**Q.** With `O=S(=O)(c1ccc(Br)cc1)N1CCCCC1CO` (stereo not drawn) [CBK051127] as the compound, how does the viability at 28.5 h, 10 µM read?
**A.** 116%

**Q.** For `COC(=O)C1CCCCN1S(=O)(=O)c1cccs1` (stereo not drawn) [CBK051135], which viability at 28.5 h, 10 µM is on record?
**A.** 109%

**Q.** With `CCOC(=O)C1CCN(S(=O)(=O)c2cccs2)CC1` [CBK051137] as the compound, how does the viability at 28.5 h, 10 µM read?
**A.** 92.4%

**Q.** For `Cc1ccc(S(=O)(=O)c2cncc(N3CCNCC3)n2)cc1` [CBK051166C], which viability at 28.5 h, 10 µM is on record?
**A.** 101%

**Q.** With `O=C(O)CCC(=O)N1CCCc2ccccc21` [CBK051167] as the compound, how does the viability at 28.5 h, 10 µM read?
**A.** 92.6%
